The values that follow come from patent publication US11014911B2, “CDK2 inhibitors” (Pfizer Inc., priority 2019, dated 2021).

One may read the Ki as a measure of affinity in units of concentration, obtained from inhibition or displacement.

The target of assay [1] is CDK2/Cyclin E1 full length (Homo sapiens (Human), UniProt P24941). Put plainly: CDK2/Cyclin E1 full length mobility shift assay. The assay is classed as biochemical.
A further assay addresses GSK3β (H350L) (Homo sapiens (Human), UniProt P49841). The note with it: read-out: GSK3β Ki.

GSK3β (H350L), sequence (P49841 whole entry, stated change not applied): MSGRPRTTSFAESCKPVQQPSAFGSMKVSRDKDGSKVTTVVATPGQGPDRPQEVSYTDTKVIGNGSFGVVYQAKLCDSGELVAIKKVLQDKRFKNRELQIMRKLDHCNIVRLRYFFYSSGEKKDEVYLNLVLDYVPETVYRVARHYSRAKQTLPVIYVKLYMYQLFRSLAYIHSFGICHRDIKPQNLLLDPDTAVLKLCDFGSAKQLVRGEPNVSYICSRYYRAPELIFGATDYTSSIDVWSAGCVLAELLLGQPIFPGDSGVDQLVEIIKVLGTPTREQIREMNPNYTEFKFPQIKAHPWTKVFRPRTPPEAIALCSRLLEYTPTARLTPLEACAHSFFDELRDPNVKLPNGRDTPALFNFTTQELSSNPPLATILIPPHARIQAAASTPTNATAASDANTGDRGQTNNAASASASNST
Method for GSK3β (H350L): The assay was initiated with the addition of ATP, following 15 minutes pre-incubation of enzyme and inhibitor at room temperature in the reaction mixture. The reaction was stopped after 30 minutes at room temperature by the addition of 50 μL of 80 mM EDTA.

Take `CC[C@H](C)NC(=O)O[C@@H]1CC[C@H](c2cc(NC(=O)Cc3cccc(C)c3S(C)(=O)=O)n[nH]2)C1` [Example 372, (1R,3S)-3-[3-({[3-methyl-2-(methylsulfonyl)phenyl]acetyl}amino)-1H-pyrazol-5-yl]cyclopentyl (2S)-butan-2-ylcarbamate]: the values for the Ki (in assay [1]; at GSK3β (H350L)) were 0.85 nM and 115 nM, respectively.
Take `CC[C@H](C)NC(=O)O[C@@H]1CC[C@H](c2cc(NC(=O)Cc3cc(C)ncc3S(C)(=O)=O)n[nH]2)C1` [Example 373, (1R,3S)-3-[3-({[2-methyl-5-(methylsulfonyl)pyridin-4-yl]acetyl}amino)-1H-pyrazol-5-yl]cyclopentyl (2S)-butan-2-ylcarbamate]: the inhibition constant (Ki) worked out at 0.47 nM in assay [1] and 74.3 nM at GSK3β (H350L).
As to `CC[C@H](C)NC(=O)O[C@@H]1CC[C@H](c2cc(NC(=O)Cc3ccccc3S(=O)(=O)NC)n[nH]2)C1` [Example 374, (1R,3S)-3-[3-({[2-(methylsulfamoyl)phenyl]acetyl}amino)-1H-pyrazol-5-yl]cyclopentyl (2S)-butan-2-ylcarbamate], the figures for the Ki (in assay [1]; on GSK3β (H350L)) were 0.32 nM and 10.8 nM, respectively.
For `CC[C@H](C)NC(=O)O[C@@H]1CC[C@H](c2cc(NC(=O)Cc3cc(OC)ncc3S(C)(=O)=O)n[nH]2)C1` [Example 375, (1R,3S)-3-[3-({[2-methoxy-5-(methylsulfonyl)pyridin-4-yl]acetyl}amino)-1H-pyrazol-5-yl]cyclopentyl (2S)-butan-2-ylcarbamate], the inhibition constant Ki turned out to be 0.31 nM in assay [1] and 116 nM on GSK3β (H350L).
On to `CC[C@H](C)NC(=O)O[C@@H]1CC[C@H](c2cc(NC(=O)Cc3ccc(COC)cc3S(C)(=O)=O)[nH]n2)C1` [Example 376, (1R,3S)-3-[5-({[4-(methoxymethyl)-2-(methylsulfonyl)phenyl]acetyl}amino)-1H-pyrazol-3-yl]cyclopentyl (2S)-butan-2-ylcarbamate], for which the inhibition constant (Ki) in assay [1] amounted to 0.4 nM; at GSK3β (H350L), 99.3 nM.
On to `Cc1cnc(CC(=O)Nc2cc([C@H]3CC[C@@H](OC(=O)N[C@@H](C)[C@@H](C)F)C3)[nH]n2)o1` [Example 383, (1R,3S)-3-(3-{[(5-methyl-1,3-oxazol-2-yl)acetyl]amino}-1H-pyrazol-5-yl)cyclopentyl [(2S,3R)-3-fluorobutan-2-yl]carbamate], for which the Ki turned out to be 1.34 nM in assay [1] and 43.2 nM at GSK3β (H350L).
Consider `C[C@H](CC(F)(F)F)NC(=O)O[C@@H]1CC[C@H](c2cc(NC(=O)Cc3cnn(C)c3)n[nH]2)C1` [Example 394, (1R,3S)-3-(3-{[(1-methyl-1H-pyrazol-4-yl)acetyl]amino}-1H-pyrazol-5-yl)cyclopentyl [(2R)-4,4,4-trifluorobutan-2-yl]carbamate], for which the inhibition constant Ki in assay [1] is 0.42 nM; at GSK3β (H350L), 42.7 nM.
Take `CC[C@H](C)CNC(=O)O[C@@H]1CC[C@H](c2cc(NC(=O)Cc3ccno3)n[nH]2)C1` [Example 415, (1R,3S)-3-{3-[(1,2-oxazol-5-ylacetyl)amino]-1H-pyrazol-5-yl}cyclopentyl[(2S)-2-methylbutyl]carbamate]: the inhibitory constant (Ki) in assay [1] amounted to 1.48 nM; at GSK3β (H350L) it was 26.4 nM.
On to `CC[C@H](C)CNC(=O)O[C@@H]1CC[C@H](c2cc(NC(=O)Cc3cnc(C)s3)n[nH]2)C1` [Example 417, (1R,3S)-3-(3-{[(2-methyl-1,3-thiazol-5-yl)acetyl]amino}-1H-pyrazol-5-yl)cyclopentyl [(2S)-2-methylbutyl]carbamate], for which the Ki stood at 0.81 nM in assay [1] and 12.6 nM on GSK3β (H350L).
With `Cc1ccc(CC(=O)Nc2cc([C@H]3CC[C@@H](OC(=O)NC4(C)CC4)C3)[nH]n2)nc1` [Example 424, (1R,3S)-3-(3-{[(5-methylpyridin-2-yl)acetyl]amino}-1H-pyrazol-5-yl)cyclopentyl (1-methylcyclopropyl)carbamate], the Ki in assay [1] came out at 0.51 nM; at GSK3β (H350L), 14.4 nM.
In the case of `Cc1cccc(CC(=O)Nc2cc([C@H]3CC[C@@H](OC(=O)NC4(C)CC4)C3)[nH]n2)n1` [Example 426, (1R,3S)-3-(3-{[(6-methylpyridin-2-yl)acetyl]amino}-1H-pyrazol-5-yl)cyclopentyl (1-methylcyclopropyl)carbamate], the values for the inhibitory constant (Ki) (in assay [1]; on GSK3β (H350L)) were 0.53 nM and 17 nM, respectively.
For `Cc1cnc(CC(=O)Nc2cc([C@H]3CC[C@@H](OC(=O)NC4(C)CC4)C3)[nH]n2)cn1` [Example 428, (1R,3S)-3-(3-{[(5-methylpyrazin-2-yl)acetyl]amino}-1H-pyrazol-5-yl)cyclopentyl (1-methylcyclopropyl)carbamate], the Ki is 0.4 nM in assay [1] and 30.1 nM on GSK3β (H350L).
Turning to `COc1ccc(CC(=O)Nc2cc([C@H]3CC[C@@H](OC(=O)NC4(C)CC4)C3)[nH]n2)nc1` [Example 433, (1R,3S)-3-(3-{[(5-methoxypyridin-2-yl)acetyl]amino}-1H-pyrazol-5-yl)cyclopentyl (1-methylcyclopropyl)carbamate], the inhibition constant Ki in assay [1] stood at 0.5 nM; at GSK3β (H350L) it was 17.1 nM.
In the same order, the values of `COc1cccc(CC(=O)Nc2cc([C@H]3CC[C@@H](OC(=O)NC4(C)CC4)C3)[nH]n2)n1` [Example 434, (1R,3S)-3-(3-{[(6-methoxypyridin-2-yl)acetyl]amino}-1H-pyrazol-5-yl)cyclopentyl (1-methylcyclopropyl)carbamate] are 0.48 nM and 39.8 nM.
Regarding `CC1(NC(=O)O[C@@H]2CC[C@H](c3cc(NC(=O)Cc4ccc(Cl)cn4)n[nH]3)C2)CC1` [Example 437, (1R,3S)-3-(3-{[(5-chloropyridin-2-yl)acetyl]amino}-1H-pyrazol-5-yl)cyclopentyl (1-methylcyclopropyl)carbamate], the Ki in assay [1] is 0.51 nM; on GSK3β (H350L), 15.9 nM.
Consider `COc1ccc(S(C)(=O)=O)c(CC(=O)Nc2cc([C@H]3CC[C@@H](OC(=O)NC4(C)CC4)C3)[nH]n2)c1` [Example 447, (1R,3S)-3-[3-({[5-methoxy-2-(methylsulfonyl)phenyl]acetyl}amino)-1H-pyrazol-5-yl]cyclopentyl (1-methylcyclopropyl)carbamate], for which the figures for the Ki (in assay [1]; on GSK3β (H350L)) were 0.36 nM and greater than 47.6 nM, respectively.
Turning to `Cc1cnc(CC(=O)Nc2cc([C@H]3CC[C@@H](OC(=O)NC4(CC(F)(F)F)CC4)C3)[nH]n2)cn1` [Example 455, (1R,3S)-3-(3-{[(5-methylpyrazin-2-yl)acetyl]amino}-1H-pyrazol-5-yl)cyclopentyl [1-2,2,2-trifluoroethyl)cyclopropyl] carbamate], the values for the inhibition constant (Ki) (in assay [1]; on GSK3β (H350L)) were 0.47 nM and 21.3 nM, respectively.
Regarding `O=C(Cc1ccno1)Nc1cc([C@H]2CC[C@@H](OC(=O)NC3CCCC3)C2)[nH]n1` [Example 460, (1R,3S)-3-{3-[(1,2-oxazol-5-ylacetyl)amino]-1H-pyrazol-5-yl}cyclopentyl cyclopentylcarbamate], the results for the Ki (in assay [1]; on GSK3β (H350L)) were 1.62 nM and 39.9 nM, respectively.
Take `Cc1ncc(CC(=O)Nc2cc([C@H]3CC[C@@H](OC(=O)N[C@@H]4CCC[C@@H]4C)C3)[nH]n2)s1` [Example 463, (1R,3S)-3-(3-{[(2-methyl-1,3-thiazol-5-yl)acetyl]amino}-1H-pyrazol-5-yl)cyclopentyl [(1R,2S)-2-methylcyclopentyl]carbamate]: the inhibition constant (Ki) is 0.55 nM in assay [1] and 28.3 nM on GSK3β (H350L).
In the same order, the values of `COc1ccc(CC(=O)Nc2cc([C@@H]3CC[C@H](OC(=O)NC4CCOCC4)C3)[nH]n2)cc1` [Example 501, (1S,3R)-3-(3-{[(4-methoxyphenyl)acetyl]amino}-1H-pyrazol-5-yl)cyclopentyl tetrahydro-2H-pyran-4-ylcarbamate] are 1.43 nM and 12.5 nM.
`Cn1cc(CC(=O)Nc2cc([C@H]3CC[C@@H](OC(=O)NC4(C)CCOCC4)C3)[nH]n2)cn1` [Example 506, (1R,3S)-3-(3-{[(1-methyl-1H-pyrazol-4-yl)acetyl]amino}-1H-pyrazol-5-yl)cyclopentyl (4-methyltetrahydro-2H-pyran-4-yl)carbamate]: the results for the Ki (in assay [1]; at GSK3β (H350L)) were 0.76 nM and 77.6 nM, respectively.
In the same order, the values of `COc1ncc(CC(=O)Nc2cc([C@H]3CC[C@@H](OC(=O)NC4(C)CCOCC4)C3)[nH]n2)s1` [Example 509, (1R,3S)-3-(3-{[(2-methoxy-1,3-thiazol-5-yl)acetyl]amino}-1H-pyrazol-5-yl)cyclopentyl (4-methyltetrahydro-2H-pyran-4-yl)carbamate] are 0.5 nM and 30.2 nM.
Consider `Cc1cc(CC(=O)Nc2cc([C@@H]3CC[C@H](OC(=O)N[C@H]4CC[C@@H](O)CC4)C3)[nH]n2)ccn1` [Example 544, (1S,3R)-3-(3-{[(2-methylpyridin-4-yl)acetyl]amino}-1H-pyrazol-5-yl)cyclopentyl (cis-4-hydroxycyclohexyl)carbamate], for which the Ki came to 0.54 nM in assay [1] and 1.96 nM at GSK3β (H350L).
Take `Cc1ccc(CC(=O)Nc2cc([C@@H]3CC[C@H](OC(=O)N[C@H]4CC[C@@H](O)CC4)C3)[nH]n2)cn1` [Example 545, (1S,3R)-3-(3-{[(6-methylpyridin-3-yl)acetyl]amino}-1H-pyrazol-5-yl)cyclopentyl (cis-4-hydroxycyclohexyl)carbamate]: the inhibition constant (Ki) in assay [1] turned out to be 0.39 nM; on GSK3β (H350L) it was 2.2 nM.
In the case of `Cc1ccc(CC(=O)Nc2cc([C@@H]3CC[C@H](OC(=O)N[C@H]4CC[C@@H](O)CC4)C3)[nH]n2)nc1` [Example 546, (1S,3R)-3-(3-{[(5-methylpyridin-2-yl)acetyl]amino}-1H-pyrazol-5-yl)cyclopentyl (cis-4-hydroxycyclohexyl)carbamate], the figures for the Ki (in assay [1]; on GSK3β (H350L)) were 1.85 nM and 3.51 nM, respectively.
In the case of `Cc1cc(CC(=O)Nc2cc([C@@H]3CC[C@H](OC(=O)N[C@H]4CC[C@H](O)CC4)C3)[nH]n2)ccn1` [Example 547, (1S,3R)-3-(3-{[(2-methylpyridin-4-yl)acetyl]amino}-1H-pyrazol-5-yl)cyclopentyl (trans-4-hydroxycyclohexyl)carbamate], the Ki in assay [1] worked out at 0.61 nM; at GSK3β (H350L), 3.62 nM.
Turning to `Cc1ccc(CC(=O)Nc2cc([C@@H]3CC[C@H](OC(=O)N[C@H]4CC[C@H](O)CC4)C3)[nH]n2)cn1` [Example 548, (1S,3R)-3-(3-{[(6-methylpyridin-3-yl)acetyl]amino}-1H-pyrazol-5-yl)cyclopentyl (trans-4-hydroxycyclohexyl)carbamate], the results for the Ki (in assay [1]; at GSK3β (H350L)) were 0.39 nM and 2.1 nM, respectively.
